From patent publication US12233143B2, “Topical compositions containing rose oil and cannabidiol and methods of making and using the same” (priority 2019, dated 2025)
Values joined by “and” are separate entries in the source; they are usually repeats but may differ in a detail not shown here. Identical values can stand only once.

Key:
[1] = system: PMA-induced IL-8 release by NCTC-2544 keratinocytes; assay: PMA-induced IL-8 release, ELISA; format: cell-based, human; details: Dexamethasone 10^−7 M, PMA 0.1 μg/ml
Method: (§1) The effect of S-863d and S-863g on inflammation in keratinocytes was evaluated by measuring phorbol myristate acetate (PMA)-induced interleukin-8 (IL-8) and prostaglandin E2 (PGE2) release from a NCTC-2544 keratinocyte cell line by enzyme-linked immunosorbent assay (ELISA).
(§2) Materials: A NCTC-2544 human keratinocyte cell line (NCTC-2544 cells) was cultured at 37° C. in the presence of 5% CO2. The NCTC-2544 cells were grown in Dulbecco's Modified Eagle Medium (DMEM) supplemented with L-glutamine (2 mM), penicillin (50 U/mL), Streptomycin (50 μg/mL), and fetal calf serum (FCS) (10%). S-863d contained 3% phospholipids, 54% glycerin, 10% caprylic/capric triglyceride, 1% cannabidiol, 2% AlpineRoseActive™, 1% glycoin, 0.1% tocopherol, and water (ad 100%). The particle size (zAve) of S-863d was 90±50 nm, and the pH of S-863d was between 4.5 and 7.5. The total germ count of S-863d was <100 CFU/g. S-863d was stored at 4° C. in a dark space in a closed container. S-863g (negative control) contained 1% CBD in DMSO. S-863 d was evaluated at 0.004%, 0.02%, and 0.1%. S-863g was evaluated at 0.00044%, 0.0013%, and 0.004%.
(§3) Methods: The keratinocytes were seeded in 96-well plates and cultured for 24 hours in culture medium. The medium was then replaced by culture medium containing or not (control) the test compounds or the reference compound (dexamethasone at 10′ M for IL-8 assay and indomethacin at 10′ M for PGE2 assay) and the cells were pre-incubated for 24 hours. After pre-incubation, the medium was replaced by culture medium containing or not (control) the test compounds or the reference compounds and the inflammatory inducer phorbol myristate acetate (PMA) at 0.1 μg/mL was added. The cells were further incubated for 24 hours. A control without inducer was performed in parallel (non-stimulated control condition). All experimental conditions were performed in triplicate. IL-8 and PGE2 released in the culture supernatants were measured by ELISA.
(§4) Inhibition of IL-8 and PMA-induced PGE2 release was measured using the following formula: […]

[2] = system: PMA-induced PGE2 release by NCTC-2544 keratinocytes; assay: PMA-induced PGE2 release, ELISA; format: cell-based, human
Method: as §1, §2, §3, §4

[3] = system: human keratinocyte stem cells (KSC); assay: Migration of keratinocyte stem cells, scratch wound gap recovery; format: cell-based; details: 24 hours of incubation
Method: The effect of S-863d and S-863g on wound healing in keratinocytes was evaluated. The migration of human keratinocyte stem cells (KSC) was evaluated by measuring wound recovery using imaging on a system whereby a “wound gap” was created by scratching.
Materials: Human keratinocyte cells (KSC) were used at the third passage and cultured at 37° C. in the presence of 5% CO2. The NHEK cells were grown in keratinocyte serum free media supplemented with gentamycin (25 μg/mL), pituitary extract (PE) (25 μg/mL), and epidermal growth factor (EGF) (0.25 ng/ml). S-863d contained 3% phospholipids, 54% glycerin, 10% caprylic/capric triglyceride, 1% cannabidiol, 2% AlpineRoseActive™, 1% glycoin, 0.1% tocopherol, and water (ad 100%). The particle size (zAve) of S-863d was 90±50 nm, and the pH of S-863d was between 4.5 and 7.5. The total germ count of S-863d was <100 CFU/g. S-863d was stored at 4° C. in a dark space in a closed container. S-863g (negative control) contained 1% CBD in DMSO. S-863d was evaluated at 0.004%, 0.02%, and 0.1%. S-863g was evaluated at 0.00044%, 0.0013%, and 0.004%.
Methods: The KSCs were seeded in 24-well plates (previously coated with a collagen I solution) and cultured in culture medium for 24 hours. The medium was then replaced by assay medium and an artificial “wound gap” was generated by scratching the cell monolayers. The KSCs were labeled with calcien-AM. After 30 minutes of incubation (TO), the medium was replaced by assay medium containing or not (control condition) the test compounds or the reference compound (e.g. epidermal growth factor (EGF) at 10 ng/mL) and the cells were further incubated for 24 hours. The labeling with calcein-AM was renewed before the final timepoint. All experimental conditions were performed in triplicate. Cell migration into the migration zone was observed after 0 (TO) and 24 hours of incubation using a high-resolution imaging system INCell Analyzer′ 2200 (GE Healthcare) automated microscope and the artificial wound area was analyzed using ImageJ software. One picture was taken per well (objective lens×4). The artificial wound area was measured after 24 hours of incubation and compared to the area measured at TO in order to visualize and quantify the wound recovery. The effect of compounds on cell migration was compared to the untreated control.
The migration area (percentage of wound recovery) was calculated using the following formula: […]

With `C[C@@H]1C[C@H]2[C@@H]3CCC4=CC(=O)C=C[C@]4(C)[C@@]3(F)[C@@H](O)C[C@]2(C)[C@@]1(O)C(=O)CO` [Dexamethasone, dexamethasone] the “IL-8 % Stimulated control” value [1] was 18%, the “IL-8 Mean” value [1] was 22112 pg/mL and the “IL-8 (pg/ml) dilution factor adjusted” value ([1]; single replicate) was 18117 pg/mL and 23002 pg/mL and 25217 pg/mL. The inhibition at 0.1 µM ([1]; Homo sapiens, NCTC-2544, read-out: IL-8 % Relative inhibition) was 82%.

`COc1ccc2c(c1)c(CC(=O)O)c(C)n2C(=O)c1ccc(Cl)cc1` [Indomethacin, indomethacin] was tested, and the inhibition at 1 µM ([2]; Homo sapiens, NCTC-2544, read-out: PGE2 % Relative inhibition) was greater than 100%, the “PGE2 Mean” value ([2]; Indomethacin 10^−6 M, PMA 0.1 μg/ml, non-diluted samples) was less than 39 pg/mL and the “PGE2 (pg/ml) dilution factor adjusted” value ([2]; Indomethacin 10^−6 M, PMA 0.1 μg/ml, non-diluted samples, single replicate) was less than 39 pg/mL. For the same compound, the “PGE2 % Stimulated control” value ([2]; Indomethacin 10^−6 M, PMA 0.1 μg/ml, extrapolated from values below detection limit) was less than 0% and the “Effect on PMA-induced PGE2 release (in words)” value ([2]; NCTC-2544 cells, PMA 0.1 μg/mL) was “completely inhibited”.

In the case of epidermal growth factor [EGF], the “Effect on KSC migration / wound recovery (in words)” value ([3]; all tested concentrations) was “marked stimulation”, the “Wound Recovery Mean” value ([3]; EGF 10 ng/ml) was 73% and the “Wound recovery % Control” value ([3]; EGF 10 ng/ml) was 183 % Control. For the same compound, the “24 Hours Wound area” value ([3]; EGF 10 ng/ml, single image) was 0.46 mm^2 and 0.50 mm^2 and 0.76 mm^2 and the “Wound Recovery” value ([3]; EGF 10 ng/ml, single image) was 80% and 75% and 64%.
